Measurements taken from patent US7595329B2, “Benzimidazolone carboxylic acid derivatives” (Pfizer Inc, priority 2004, dated 2009).

| SMILES | melting point |
| --- | --- |
| CC(C)n1c(=O)n(C(=O)NCC2CCN(CC3(C(=O)O)CCOCC3)CC2)c2ccccc21 [Example 1, 4-{[4-({[(3-isopropyl-2-oxo-2,3-dihydro-1H-benzimidazol-1-yl)carbonyl]amino}methyl)piperidin-1-yl]methyl}tetrahydro-2H-pyran-4-carboxylic acid] | 176 °C |
| CC(C)n1c(=O)n(C(=O)NCC2CCN(CC3(C(=O)O)CCCC3)CC2)c2ccccc21 [Example 3, 1-{[4-({[(3-isopropyl-2-oxo-2,3-dihydro-1H-benzimidazol-1-yl)carbonyl]amino}methyl)piperidin-1-yl]methyl}cyclopentanecarboxylic acid] | 165 °C |
| CC(C)n1c(=O)n(C(=O)NCC2CCN(CC3(C(=O)O)CC3)CC2)c2ccccc21.Cl | 206 °C |
| CC(C)n1c(=O)n(C(=O)NCC2CCN(CC3(C(=O)O)CCCCC3)CC2)c2ccccc21 [Example 2, 1-{[4-({[(3-isopropyl-2-oxo-2,3-dihydro-1H-benzimidazol-1-yl)carbonyl]amino}methyl)piperidin-1-yl]methyl}cyclohexanecarboxylic acid] | 151 °C |
| CC(C)n1c(=O)n(C(=O)NCC2(O)CCN(CC3(C(=O)O)CCCCC3)CC2)c2ccccc21 [Example 6, 1-{[4-hydroxy-4-({[(3-isopropyl-2-oxo-2,3-dihydro-1H-benzimidazol-1-yl)carbonyl]amino}methyl)piperidin-1-yl]methyl}cyclohexanecarboxylic acid] | 184 °C |
